The text below walks through data of patent US10525110B2, “Methods for inducing partial apoptosis using caspase polypeptides” (Bellicum Pharmaceuticals, Inc., priority 2013, dated 2020).

SMILES strings stand for the structures. Read-outs that look alike come from different tables or passages of the source.

One data set concerns cells. As to the kind of experiment: AP1903 needed in vitro for effective signaling of cells. It is filed as cell-based.
For data set [1] the following is noted: cited from earlier work.
For the next data set, the system named is CD3+ΔCD19+ cells. As to the kind of experiment: CASPALLO phase 1 trial: AP1903 in patients with GvHD after iCasp9 T cell infusion. It is filed as in vivo, human.
In the next data set the test system is human CD3+CD19+ T cells. Kind of data set: AP1903 dose-dependent elimination in vivo of iCasp9-transduced T cells in NSG mice. The conditions noted are these: i.p., wild-type iCasp9-transduced T cells, 24 hours. Details: species or system immune deficient mice (NSG). The protocol:
FIG. 65A-B: AP1903 dose-dependent elimination in vivo of T cells transduced with wild-type iCasp9. T cells were transduced with SFG-iCasp9-2A-ΔCD19 retrovirus and injected i.v. into immune deficient mice (NSG). After 24 hours, mice were injected i.p. with AP1903 (0-5 mg/kg). After an additional 24 hours, mice were sacrificed and lymphocytes from the spleen (65A) and peripheral blood (65B) were isolated and analyzed by flow cytometry for the frequency of human CD3^+CD19^+ T cells.
FIG. 66: AP1903 dose-dependent elimination in vivo of T cells transduced with D330E iCasp9. T cells were transduced with SFG-iCasp9-D330E-2A-ΔCD19 retrovirus and injected i.v. into immune deficient mice (NSG). After 24 hours, mice were injected i.p. with AP1903 (0-5 mg/kg). After an additional 24 hours, mice were sacrificed and lymphocytes from the spleen (A) were isolated and analyzed by flow cytometry for the frequency of human CD3^+CD19^+ T cells.

Data set [2] can be described thus: Phase I study of AP1903 in healthy volunteers. It is filed as in vivo. The conditions noted are these: male, human, plasma, intravenous, 0.4 mg/kg; reached within 15-30 min. As to the method:
FIG. 49(A-B) provides the results of a dose-escalation study in normal male volunteers. FIG. 49A is a line graph and 49B is a chart. Healthy volunteers were infused with the indicated doses of AP1903 and at various time points, serum levels of AP1903 were measured using HPLC analysis.
In a previous Phase I study of AP1903, 24 healthy volunteers were treated with single doses of AP1903 for Injection at dose levels of 0.01, 0.05, 0.1, 0.5 and 1.0 mg/kg infused IV over 2 hours. […] Iuliucci J D, et al., J Clin Pharmacol. 41: 870-9, 2001.

For `CC[C@H](C(=O)N1CCCC[C@H]1C(=O)O[C@H](CCc1ccc(OC)c(OC)c1)c1cccc(OCC(=O)NCCNC(=O)COc2cccc([C@@H](CCc3ccc(OC)c(OC)c3)OC(=O)[C@@H]3CCCCN3C(=O)[C@@H](CC)c3cc(OC)c(OC)c(OC)c3)c2)c1)c1cc(OC)c(OC)c(OC)c1` (relative stereo) [AP1903, 2-Piperidinecarboxylic acid, 1-[(2S)-1-oxo-2-(3,4,5-trimethoxyphenyl)butyl]-, 1,2-ethanediylbis[imino(2-oxo-2,1-ethanediyl)oxy-3,1-phenylene[(1R)-3-(3,4-dimethoxyphenyl)propylidene]] ester, [2S-[1(R*),2R*[S*[S*[1(R*),2R*]]]]]-(9Cl)], the “amount needed in vitro for effective signaling of cells” value in the data set with cells is 10 to 100 nM. Further, the “safety and tolerability in healthy volunteers” value in data set [1] (0.01 mg/kg to 1.0 mg/kg dose range, listed as AP1903 for Injection) is “safe and well tolerated at all dose levels”. In data set [1] (0.01-1.0 mg/kg), the “relation of plasma levels to dose” value was “directly proportional to dose”. Also, the “plasma level as % of maximal concentration” value is about 7% in data set [1] (2 hours post-dose) and about 1% in data set [1] (10 hours post-dose). Moreover, the well-tolerated doses entry in data set [1] (Phase I study) is listed as “up to 1 mg/kg”. Further, the “effect of a single dose on GvHD-causing and virus specific T cells” value in the data set on CD3+ΔCD19+ cells (human, in vivo) is given as “can reduce or eliminate the subpopulation of T cells causing GvHD, but can spare virus specific CTLs”. The “further reduction of CD3+ΔCD19+ cells” value in the data set with CD3+ΔCD19+ cells (within 24 hours) is on record as “additional log killing”. Besides, the “dose sufficient to eliminate most modified T cells in vivo” value in the data set with human CD3+CD19+ T cells stood at 0.5 mg/kg. In data set [2], the Cmax (as a rule, the maximum level reached in the sampled fluid or tissue) is 100 to 1000 nM.
